Assay results: article PMC3871618 (PLoS ONE, 2013)
pIC50: −log10 of the molar value.

Legend:
[1] = molecular target: T1, ABCB1 transporter (Homo sapiens, UniProt P08183); test: HOE (Hoechst 33342) accumulation in MDCKII-ABCB1 cells; format: cell-based; settings: 8 µM HOE, end-point fluorescence at 30 min, 50% of each compound's own maximum inhibitory activity, read-out: IC50, inhibition of ABCB1-mediated efflux of HOE
T1 construct: expressed in transfected cells; host or cells: MDCKII (canine kidney) cells transduced with human ABCB1, from Prof; Piet Borst and Dr. Alfred Schinkel (The Netherlands Cancer Institute)
T1 sequence (P08183 whole entry): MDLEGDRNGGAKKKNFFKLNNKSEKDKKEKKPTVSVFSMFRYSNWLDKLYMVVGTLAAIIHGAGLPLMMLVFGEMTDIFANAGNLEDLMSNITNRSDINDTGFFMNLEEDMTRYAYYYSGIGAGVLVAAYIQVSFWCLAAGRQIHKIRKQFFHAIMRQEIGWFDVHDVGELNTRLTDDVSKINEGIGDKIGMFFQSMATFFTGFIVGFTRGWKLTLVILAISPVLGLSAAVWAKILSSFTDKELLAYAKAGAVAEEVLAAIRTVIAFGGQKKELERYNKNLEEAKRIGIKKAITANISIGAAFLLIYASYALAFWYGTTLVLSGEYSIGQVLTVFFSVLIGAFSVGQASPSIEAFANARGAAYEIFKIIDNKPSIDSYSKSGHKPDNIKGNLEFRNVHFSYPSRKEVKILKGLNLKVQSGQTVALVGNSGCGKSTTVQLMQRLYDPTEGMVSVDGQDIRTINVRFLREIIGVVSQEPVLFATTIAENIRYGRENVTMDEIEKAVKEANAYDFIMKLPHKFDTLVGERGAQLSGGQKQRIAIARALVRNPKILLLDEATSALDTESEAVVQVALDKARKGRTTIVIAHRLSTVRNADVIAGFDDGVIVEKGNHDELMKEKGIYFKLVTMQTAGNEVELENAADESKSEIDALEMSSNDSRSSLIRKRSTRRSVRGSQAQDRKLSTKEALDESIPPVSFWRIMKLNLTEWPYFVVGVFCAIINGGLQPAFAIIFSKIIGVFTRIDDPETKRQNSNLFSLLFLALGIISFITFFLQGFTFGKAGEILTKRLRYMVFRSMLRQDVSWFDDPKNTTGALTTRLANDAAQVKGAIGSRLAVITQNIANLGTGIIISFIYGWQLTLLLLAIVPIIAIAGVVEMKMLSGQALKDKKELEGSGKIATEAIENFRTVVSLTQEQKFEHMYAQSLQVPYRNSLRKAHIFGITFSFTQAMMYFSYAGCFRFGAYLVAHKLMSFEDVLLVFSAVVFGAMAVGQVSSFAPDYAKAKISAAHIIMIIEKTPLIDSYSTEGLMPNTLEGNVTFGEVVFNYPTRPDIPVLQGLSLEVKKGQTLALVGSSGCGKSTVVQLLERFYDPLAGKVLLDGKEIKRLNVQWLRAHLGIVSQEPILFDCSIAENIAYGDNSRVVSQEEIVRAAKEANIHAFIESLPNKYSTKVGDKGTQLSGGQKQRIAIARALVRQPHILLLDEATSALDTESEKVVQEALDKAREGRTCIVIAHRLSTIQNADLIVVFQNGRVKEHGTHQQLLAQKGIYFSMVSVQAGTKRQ
Procedure: (§1) To investigate the inhibitory activity of CDKi on ABCB1, the intracellular accumulation of HOE, a fluorescent ABCB1 substrate, was examined in both MDCKII-ABCB1 and MDCKII parent cell lines in the presence and absence of the tested compounds. The reduction in fluorescence intensity in ABCB1-transduced cells indicates the efflux activity of the ABCB1 transporter, its inhibition increases HOE accumulation and thus the intracellular fluorescence.
(§2) The assay was conducted as previously described and optimized for application in ABCB1-expressing cells. Briefly, MDCKII-ABCB1 and MDCKII parent cells were seeded at 5×10^4 cells per well on a 96-well culture plate and used for accumulation experiments after 24 h cultivation. The medium was removed and cells were washed twice with prewarmed phosphate buffered saline (PBS) at pH 7.4.

[2] = molecular target: T1, ABCB1 transporter; test: DNR accumulation in MDCKII-ABCB1 cells (flow cytometry), normalized to parental MDCKII; format: cell-based; settings: 20 µM CDKi, 2 µM DNR
Procedure: Briefly, MDCKII-ABCB1 and MDCKII parent cells were seeded at 1.5×10^5 cells per well on a 12-well plate 24 h before the experiment. The medium was removed and the cells were washed with prewarmed PBS. The cells were then preincubated in Opti-MEM, with or without CDKi or LY at 37°C in 5% CO2 for 30 min. […] Accumulation was stopped by cooling the samples on ice, removing the medium and washing twice with ice-cold PBS. The cells were then detached from the plates with 10× trypsin-EDTA, resuspended in PBS with 2% FBS and transferred to Eppendorf tubes, which were placed on ice until analysis. […] The median fluorescence (MF) intensity of 10,000 measured cells was used to compare the fluorescence resulting from each of the treatments. […] The MF intensity of untreated cells was subtracted from fluorescence values obtained for all the measured samples.
To quantify the inhibitory effect of each tested compound on the ABCB1 transporter in the MDCKII-ABCB1 cell line, the ratio between the MF intensity with or without inhibitor was calculated and normalized to the effect in the parental MDCKII cell line according to the following equation [30]: [drawing 1]

[3] = tested on: MDCKII parent cells; test: XTT cytotoxicity, CDKi + DNR combination (Chou-Talalay); format: cell-based; settings: 72 h
Procedure: (§3) 1×10^4 MDCKII-ABCB1, 1×10^4 MDCKII parent, 2×10^4 HCT-8, or 2×10^4 HepG2 cells were grown in 96-well culture plates and incubated for 24 h. Individual CDKi diluted with growth medium were added to the exponentially growing cells and the resulting mixtures were incubated for 72 h at 37°C, 5% CO2. Cytotoxicity was then assessed using the XTT assay as follows: cells were incubated with 0.167 mg/mL XTT and 4 µM PMS in Opti-MEM for 2 h. The absorbance of the soluble formazan released was measured at 470 nm on a microplate reader (Tecan, Männedorf, Switzerland).
(§4) The combination index (CI) method of Chou-Talalay, based on the median-effect equation, was used to calculate combined drug effects. This approach offers quantitative definitions for additive, synergistic and antagonistic effects (CI values of 0.9–1.1, <0.9, and >1.1, respectively). Combination experiments were performed in a constant-ratio experimental design as recommended for the most efficient data analysis, and the generated data were used to quantify dose-reduction indices (DRI) for pairs of the tested drugs. DRI represents the fold-change of a focal effect when individual agents are used simultaneously relative to their separate effects, and their activity is synergistic if DRI > 1. […] The data acquired from these drug combination experiments were analyzed using CompuSyn ver. 3.0.1 software (ComboSyn Inc., Paramus, NJ, USA).

[4] = tested on: MDCKII-ABCB1 cells; test: as above; format: cell-based
Procedure: as §3, §4

[5] = tested on: HCT-8 cells; test: as above; settings: HCT-8, 72 h
Procedure: as §3, §4

[6] = tested on: HepG2 cells; test: as above; format: cell-based, human; settings: HepG2, 72 h
Procedure: as §3, §4

[7] = molecular target: T2, ABCB1 (Homo sapiens, UniProt P08183); test: ABCB1-ATPase inhibition assay (verapamil-stimulated), Sf9 membranes; format: biochemical; design: purchased Solvo Biotechnology (Szeged, Hungary); host or cells: Sf9 insect cell membranes; settings: 140 nM to 300 µM
T2 sequence (P08183 whole entry): as above
Procedure: (§5) The drug efflux function of ABCB1 is linked to hydrolysis of ATP by ATPase, which is stimulated in the presence of ABCB1 substrates. In the activation assay, transported substrates can stimulate baseline vanadate-sensitive ATPase activity, whereas in the inhibition assay, which is carried out in the presence of a known activator of the transporter, inhibitors may reduce the maximal vanadate-sensitive ATPase activity. ATPase activity was measured by assessing the amount of phosphate liberated from ATP by the ABCB1 transporter using the […] ATPase kit for ABCB1 according to the manufacturer’s instructions. For this purpose, Sf9 cell membranes (4 µg protein per well) were mixed with each of the test compounds (singly) in solutions with concentrations ranging from 140 nM to 300 µM, then incubated at 37°C for 10 min in the presence or absence of 1.2 mM sodium orthovanadate. The reaction was started by adding 10 mM ATP solution (magnesium salt) to the reaction mixture, stopped 10 min later, and the absorbance at 590 nm was measured after a further 30 min incubation (GeniosPlus apparatus; Tecan, Männedorf, Switzerland). The ATPase activity in each sample was determined as the difference in liberated amounts of phosphate measured in the presence and absence of 1.2 mM sodium orthovanadate. Phosphate standards were prepared in each plate and verapamil served as a positive control for ABCB1 stimulation. The results are expressed as vanadate-sensitive ATPase activities.

[8] = molecular target: T2, ABCB1; test: ABCB1-ATPase activation assay (baseline), Sf9 membranes; format: biochemical; design: purchased Solvo Biotechnology (Szeged, Hungary); host or cells: Sf9 insect cell membranes; settings: activation assay, 140 nM to 300 µM
Procedure: as §5

[9] = molecular target: T2, ABCB1; test: HOE (Hoechst 33342) accumulation in MDCKII-ABCB1 cells; format: cell-based; design: expressed in transfected cells; host or cells: MDCKII (canine kidney) cells transduced with human ABCB1, from Prof; Piet Borst and Dr. Alfred Schinkel (The Netherlands Cancer Institute); settings: human, probe Hoechst 33342 (HOE), 8 µM, CDKi applied at their respective IC50 concentrations, % as strongly as LY, read-out: Inhibition of HOE efflux relative to LY
Procedure: as §1, §2

[10] = CDKi combined with DNR at constant ratio
[11] = DNR combined with Olomoucine II, ratio 1∶9.2
[12] = DNR combined with Purvalanol A, ratio 1∶11.7
[13] = DNR combined with Roscovitine, ratio 1∶12.3
[14] = DNR combined with Olomoucine II, ratio 1∶6.3
[15] = DNR combined with Purvalanol A, ratio 1∶17.7
[16] = DNR combined with Roscovitine, ratio 1∶17.0
[17] = DNR combined with Olomoucine II, ratio 1∶20.5
[18] = DNR combined with Roscovitine, ratio 1∶47.0

In the case of `CC[C@H](CO)Nc1nc(NCc2ccccc2)c2ncn(C(C)C)c2n1` [roscovitine], the pIC50 [1] was 4.99, the “ABCB1 inhibition (DNR efflux)” value [2] was “significant (P<0.05) ABCB1 inhibition” and the “DRI at Fa 0.75, drug II (CDKi)” value [3, 10] was 2.29±0.05. For the same molecule, the “DRI at Fa 0.9, drug II (CDKi)” value [3, 10] was 2.37±0.06, the “Fa above which combination with DNR is synergistic” value ([3]; constant ratio) was > 0.45 and the “DRI at Fa 0.75, drug II (CDKi)” value [4] was 3.08±0.02. For the same molecule, the “DRI at Fa 0.9, drug II (CDKi)” value [4] was 2.96±0.03, the “Fa at which combination with DNR shows synergistic cytotoxic effects” value ([5]; constant ratio) was > 0.3 and the “DRI at Fa 0.5, drug II (CDKi)” value [5, 10] was 2.49±0.02. The “DRI at Fa 0.75, drug II (CDKi)” value [5, 10] was 2.29±0.03, the “DRI at Fa 0.9, drug II (CDKi)” value [5, 10] was 2.11±0.06 and the “Fa values for synergism of combination with DNR” value ([6]; constant ratio) was 0.65. The “DRI at Fa 0.75, drug II (CDKi)” value [6, 10] was 2.51±0.02, the “DRI at Fa 0.9, drug II (CDKi)” value [6, 10] was 2.56±0.02 and the “Effect on verapamil-stimulated vanadate-sensitive ATPase activity of ABCB1” value [7] was “considerably and dose-dependently reduced”. For the same molecule, the “Effect on baseline vanadate-sensitive ATPase activity of ABCB1” value [8] was “increased the baseline vanadate-sensitive ATPase activity” and the inhibition at 30 min [9] was 57%.
`COc1cccc2c1C(=O)c1c(O)c3c(c(O)c1C2=O)C[C@@](O)(C(C)=O)C[C@@H]3O[C@H]1C[C@H](N)[C@H](O)[C@H](C)O1` [DNR, daunorubicin] was tested, and the “DRI at Fa 0.5, drug I (DNR)” value [3, 11] was 2.38±0.08, the “DRI at Fa 0.75, drug I (DNR)” value [3, 11] was 3.07±0.06 and the “DRI at Fa 0.9, drug I (DNR)” value [3, 11] was 3.96±0.03. The “DRI at Fa 0.5, drug I (DNR)” value [3, 12] was 2.25±0.03, the “DRI at Fa 0.75, drug I (DNR)” value [3, 12] was 2.84±0.05 and the “DRI at Fa 0.9, drug I (DNR)” value [3, 12] was 3.60±0.09. For the same molecule, the “DRI at Fa 0.75, drug I (DNR)” value [3, 13] was 2.74±0.06, the “DRI at Fa 0.9, drug I (DNR)” value [3, 13] was 3.57±0.09 and the “DRI at Fa 0.5, drug I (DNR)” value [5, 14] was 3.11±0.13. The “DRI at Fa 0.75, drug I (DNR)” value [5, 14] was 4.14 ±0.08, the “DRI at Fa 0.9, drug I (DNR)” value [5, 14] was 5.45±0.02 and the “DRI at Fa 0.75, drug I (DNR)” value [5, 15] was 3.12±0.03. The “DRI at Fa 0.9, drug I (DNR)” value [5, 15] was 4.36±0.13, the “DRI at Fa 0.5, drug I (DNR)” value [5, 16] was 2.63±0.02 and the “DRI at Fa 0.75, drug I (DNR)” value [5, 16] was 3.96±0.05. For the same molecule, the “DRI at Fa 0.9, drug I (DNR)” value [5, 16] was 5.96±0.17, the “DRI at Fa 0.75, drug I (DNR)” value [6, 17] was 2.55±0.03 and the “DRI at Fa 0.9, drug I (DNR)” value [6, 17] was 4.68±0.09. The “DRI at Fa 0.9, drug I (DNR)” value ([6]; DNR combined with Purvalanol A, ratio 1∶43.0) was 4.05±0.08, the “DRI at Fa 0.75, drug I (DNR)” value [6, 18] was 2.72±0.02 and the “DRI at Fa 0.9, drug I (DNR)” value [6, 18] was 5.02±0.03.
